Data as given in ChEMBL document CHEMBL2385047, “Synthesis and antifungal evaluation of pentyloxyl-diphenylisoxazoloyl pneumocandins and echinocandins” (Bioorg Med Chem Lett, 2013).
Converted amounts (≈) assume the structure as drawn.

Experiments:
Candida albicans [1] = assay: Antifungal activity against Candida albicans MY1055 infected in DBA/2 mouse assessed as reduction of log CFU in kidney administered 30 mins as ip tid post infection measured after 24 hrs; format: functional
Candida albicans [2] = assay: Antifungal activity against caspofungin-resistant Candida albicans CLY-16996 harboring 1,3-beta-D-glucan synthase component FKS1/FKS1 S645F mutant assessed as growth inhibition after 24 hrs by NCCLS broth microdilution method; format: functional; settings: CLY-16996, 24 h
[3] = Inhibition of caspofungin-resistant Candida albicans CLY-16997 1,3-beta-D-glucan synthase component FKS1/FKS1 S645P mutant using UDP[6,3H]-glucose as substrate after 60 mins by liquid scintillation counting analysis
[4] = Inhibition of caspofungin-resistant Candida albicans CLY-16996 1,3-beta-D-glucan synthase component FKS1/FKS1 S645F mutant using UDP[6,3H]-glucose as substrate after 60 mins by liquid scintillation counting analysis
Beta-1,3-glucan synthase = molecular target: T1, Beta-1,3-glucan synthase (Candida albicans, UniProt O13383); assay: Inhibition of wild type Candida albicans MY1055 1,3-beta-D-glucan synthase using UDP[6,3H]-glucose as substrate after 60 mins by liquid scintillation counting analysis
T1 sequence (O13383 whole entry): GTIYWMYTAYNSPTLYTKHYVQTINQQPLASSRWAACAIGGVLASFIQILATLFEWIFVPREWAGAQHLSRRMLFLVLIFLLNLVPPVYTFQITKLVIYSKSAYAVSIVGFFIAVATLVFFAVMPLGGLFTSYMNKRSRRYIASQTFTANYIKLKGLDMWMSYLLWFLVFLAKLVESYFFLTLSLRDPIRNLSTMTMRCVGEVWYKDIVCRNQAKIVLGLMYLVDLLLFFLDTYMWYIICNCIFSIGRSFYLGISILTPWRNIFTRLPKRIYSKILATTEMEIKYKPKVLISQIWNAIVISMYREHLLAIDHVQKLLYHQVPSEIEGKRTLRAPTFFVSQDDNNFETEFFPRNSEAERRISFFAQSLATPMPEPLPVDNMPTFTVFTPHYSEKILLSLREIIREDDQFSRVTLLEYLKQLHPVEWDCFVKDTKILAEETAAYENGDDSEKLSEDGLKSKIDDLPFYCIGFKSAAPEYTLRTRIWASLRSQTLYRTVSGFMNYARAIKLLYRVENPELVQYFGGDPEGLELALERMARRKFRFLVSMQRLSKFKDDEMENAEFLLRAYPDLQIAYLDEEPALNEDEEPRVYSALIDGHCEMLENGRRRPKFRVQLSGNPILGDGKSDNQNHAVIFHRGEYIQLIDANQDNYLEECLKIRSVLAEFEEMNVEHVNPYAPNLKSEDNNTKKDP

Escherichia coli = assay: Antibacterial activity against Escherichia coli ATCC 25922 assessed as growth inhibition after 24 hrs by NCCLS broth microdilution method; format: functional; settings: ATCC 25922, 24 h, read-out: MIC100
Staphylococcus aureus = assay: Antibacterial activity against methicillin-sensitive Staphylococcus aureus MB2865 assessed as growth inhibition after 24 hrs by NCCLS broth microdilution method; format: functional; settings: MB2865, 24 h, read-out: MIC100
Candida albicans [5] = assay: Antifungal activity against Candida albicans NR3 assessed as growth inhibition after 24 hrs by NCCLS broth microdilution method; format: functional; settings: NR3, 24 h
Candida albicans [6] = assay: Antifungal activity against Candida albicans CAI4-R1 assessed as growth inhibition after 24 hrs by NCCLS broth microdilution method; format: functional; settings: CAI4-R1, 24 h
Candida albicans [7] = assay: Antifungal activity against wild type Candida albicans CAI4 assessed as growth inhibition after 24 hrs by NCCLS broth microdilution method; format: functional; settings: CAI4, 24 h
[8] = test system: Meyerozyma guilliermondii; assay: Antifungal activity against wild type Candida guilliermondii CLY308 assessed as growth inhibition after 24 hrs by NCCLS broth microdilution method; format: functional; settings: CLY308, 24 h
Aspergillus fumigatus = assay: Antifungal activity against Aspergillus fumigatus MF5668 caspofungin spontaneous resistance mutant assessed as growth inhibition after 24 hrs by NCCLS broth microdilution method; format: functional; settings: MF5668, 24 h
Cryptococcus neoformans = assay: Antifungal activity against capsular wild type Cryptococcus neoformans MY2061 assessed as growth inhibition after 24 hrs by NCCLS broth microdilution method; format: functional; settings: MY2061, 24 h, read-out: MIC100
Candida parapsilosis = assay: Antifungal activity against wild type Candida parapsilosis ATCC 22019 assessed as growth inhibition after 24 hrs by NCCLS broth microdilution method; format: functional; settings: Lodderomyces parapsilosis, ATCC 22019, 24 h
Pichia kudriavzevii = assay: Antifungal activity against wild type Candida krusei CLY549 assessed as growth inhibition after 24 hrs by NCCLS broth microdilution method; format: functional; settings: CLY549, 24 h
Clavispora lusitaniae = assay: Antifungal activity against wild type Candida lusitaniae MY1396 assessed as growth inhibition after 24 hrs by NCCLS broth microdilution method; format: functional; settings: MY1396, 24 h
Nakaseomyces glabratus = assay: Antifungal activity against wild type Candida glabrata MY1381 assessed as growth inhibition after 24 hrs by NCCLS broth microdilution method; format: functional; settings: MY1381, 24 h
Candida albicans [9] = assay: Antifungal activity against wild type Candida albicans MY1055 assessed as growth inhibition after 24 hrs by NCCLS broth microdilution method in presence of human serum; format: functional; settings: MY1055, 24 h
Candida albicans [10] = assay: Antifungal activity against wild type Candida albicans MY1055 assessed as growth inhibition after 24 hrs by NCCLS broth microdilution method; format: functional; settings: MY1055, 24 h

SMILES: CC[C@H](C)C[C@H](C)CCCCCCCCC(=O)N[C@H]1C[C@@H](O)[C@@H](NCCN)NC(=O)[C@@H]2[C@@H](O)CCN2C(=O)[C@H]([C@H](O)CCN)NC(=O)[C@H]([C@H](O)[C@@H](O)c2ccc(O)cc2)NC(=O)[C@@H]2C[C@@H](O)CN2C(=O)[C@H]([C@@H](C)O)NC1=O [CASPOFUNGIN]
- ED90 (Candida albicans [1]): 0.02 mg/kg/day
- ED99 (Candida albicans [1]): 0.15 mg/kg/day
- MIC (Candida albicans [2]): 64 µg/mL (≈ 58.5 µM)
- IC50 [3]: > 9.2 µM
- IC50 [4]: > 92 µM
- IC50 (Beta-1,3-glucan synthase): 0.00024 µM
- MIC (Escherichia coli): > 32 µg/mL
- MIC (Staphylococcus aureus): 32 µg/mL (≈ 29.3 µM)
- MIC80 (Candida albicans [5]): 2 µg/mL (≈ 1.83 µM)
- MIC (Candida albicans [5]; read-out: MIC100): > 32 µg/mL
- MIC80 (Candida albicans [6]): 1 µg/mL (≈ 0.915 µM)
- MIC (Candida albicans [6]; read-out: MIC100): > 32 µg/mL
- MIC80 (Candida albicans [7]): < 0.03 µg/mL
- MIC (Candida albicans [7]; read-out: MIC100): 0.125 µg/mL (≈ 0.114 µM)
- MIC80 [8]: 0.25 µg/mL (≈ 0.229 µM)
- MIC ([8]; read-out: MIC100): 1 µg/mL (≈ 0.915 µM)
- MIC80 (Aspergillus fumigatus): < 0.03 µg/mL
- minimal effective concentration (Aspergillus fumigatus; read-out: MEC): > 32 µg/mL
- MIC (Cryptococcus neoformans): 16 µg/mL (≈ 14.6 µM)
- MIC80 (Candida parapsilosis): 0.25 µg/mL (≈ 0.229 µM)
- MIC (Candida parapsilosis; read-out: MIC100): > 32 µg/mL
- MIC80 (Pichia kudriavzevii): 0.25 µg/mL (≈ 0.229 µM)
- MIC (Pichia kudriavzevii; read-out: MIC100): 2 µg/mL (≈ 1.83 µM)
- MIC80 (Clavispora lusitaniae): < 0.03 µg/mL
- MIC (Clavispora lusitaniae; read-out: MIC100): 0.5 µg/mL (≈ 0.457 µM)
- MIC80 (Nakaseomyces glabratus): 0.06 µg/mL (≈ 0.0549 µM)
- MIC (Nakaseomyces glabratus; read-out: MIC100): 0.25 µg/mL (≈ 0.229 µM)
- MIC80 (Candida albicans [9]): 0.125 µg/mL
- MIC (Candida albicans [9]; read-out: MIC100): 8 µg/mL
- MIC80 (Candida albicans [10]): < 0.03 µg/mL
- MIC (Candida albicans [10]; read-out: MIC100): 0.06 µg/mL (≈ 0.0549 µM)
